Key:
[1] = Study Compound 1-101 (safety, exposure, activity at 200 mg BID); type: in vivo
Text: Three patients with AML or MDS will be enrolled at the designated dose. If none of the first 3 patients experience a dose-limiting toxicity during the first cycle, patients may be enrolled into the next higher dose level. If 1 patient out of the first 3 experiences a dose-limiting toxicity, the dose level may be expanded with an additional 3 patients.

[2] = system: AML and high-risk MDS; experiment: Ongoing Phase 1 study in relapsed/refractory AML and high-risk MDS; type: in vivo, human patients; conditions: patients with relapsed/refractory AML and high-risk MDS
Experimental: To support the development of effective treatment regimens with Compound 1, a study was conducted to monitor bone marrow (BM) samples obtained from AML and high risk MDS patients with different prior histories of treatment. […]
• MTD (defined as the highest dose at which there is <33% dose-limiting toxicity rate in the first cycle of treatment in a minimum of 6 patients [time frame: 28 days]) • RP2D (determined by the Sponsor in consultation with the CSC, considering all aspects of safety, tolerability, biologic activity, pharmacokinetic and preliminary efficacy in the trial population [time frame: 24 months]) • Safety measured by adverse events, ECGs, chemistry and hematology laboratory values, vital signs, and physical examinations […]
• Pharmacokinetic parameters of Compound 1 measured by Cmax, Cmin, Tmax, AUC0-24, AUC0-inf, and T1/2 (time frame 24 months) • Clinical response in AML or hrMDS assessed as follows: • AML: • Proportion of patients who reach CR+CRh • Proportion of patients who reach CRi, or CR or CRh • hrMDS: overall response rate of CR+PR+mCR • Transfusion independence […]

[3] = system: bone marrow (BM) blasts; experiment: Clinical study of change in bone marrow blasts, BLC2 inhibitor naive vs prior-exposed patients; type: in vivo, human patients
Text: FIG. 1A is a graph showing the results of a clinical study for the efficacy of emavusertib (Compound 1) administration on reducing bone marrow (BM) blasts in patients with blood cancer. Blasts are immature white blood cells that are usually found in small numbers in healthy bone marrow. High levels of blasts circulating in the blood are associated with cancer. This clinical study measured the change in blast levels before and after receiving Compound 1 treatment. Here, the relative change in blast levels before and after Compound 1 is compared between patients who had previously received BLC2 inhibitors in prior treatment and patients who were naïve to BLC2 inhibitors. The comparison groups each contain 22 high risk myelodysplastic syndrome (hrMDS) patients and 10 acute myeloid leukemia (AML) patients.
FIG. 1B is a graph showing baseline and best post-treatment blast levels of the subjects in FIG. 1A. […] Each patient is shaded according to their diagnosis, with high-risk myelodysplastic syndrome (MDS) patients tending to have lower blast levels than acute myeloid leukemia (AML) patients.
To support the development of effective treatment regimens with Compound 1, a study was conducted to monitor bone marrow (BM) samples obtained from AML and high risk MDS patients with different prior histories of treatment.
• Pharmacokinetic parameters of Compound 1 measured by Cmax, Cmin, Tmax, AUC0-24, AUC0-inf, and T1/2 (time frame 24 months) • Clinical response in AML or hrMDS assessed as follows: • AML: • Proportion of patients who reach CR+CRh • Proportion of patients who reach CRi, or CR or CRh • hrMDS: overall response rate of CR+PR+mCR • Transfusion independence
This is a Phase 1, open-label dose escalation and cohort expansion study of Compound 1 as a monotherapy in patients with AML or MDS and in combination with AZA in treatment-naïve, adult patients with AML or hrMDS, after first line therapy.

Cc1cc(-c2nc(C(=O)Nc3cc4oc(N5CCOCC5)nc4nc3N3CC[C@@H](O)C3)co2)ccn1 [Compound 1]
biologic activity and clinical efficacy [1]: demonstrating signs of biologic activity and clinical efficacy | drug exposure [1]: capable of achieving relevant levels of drug exposure | safety of starting dose [1]: safe | clinical activity [2]: demonstrated clinical activity | rate of response to Compound 1, as evidenced by reduced BM blast counts ([3]; AML and high risk MDS, no history of BLC2 inhibitor treatment vs prior exposure): higher rate of response to Compound 1, as evidenced by reduced BM blast counts in hematology, compared to patients who had prior exposure to a BLC2 inhibitor | decrease in bone marrow blast counts from baseline to best post-baseline ([3]; no prior vs prior BLC2 inhibitor exposure, hrMDS and AML patients, FIG. 1B): significantly higher decreases in bone marrow blast counts from baseline to best post-baseline compared to those subjects with prior BLC2 inhibitor exposure | relative change in bone marrow blast levels before and after Compound 1 ([3]; patients naive to BLC2 inhibitors (e.g., venetoclax) vs previously exposed, comparison groups each 22 hrMDS and 10 AML, FIG. 1A): significant reduction in blasts compared to those who had been previously exposed to BLC2 inhibitors

From patent US20260315484A1, “METHODS OF TREATING CANCER IN BCL2 INHIBITOR NAIVE SUBJECTS” (Curis, Inc., priority 2023, published 2026)
